Experiment [1] concerns neutrophil infiltration of the rat lung. As to the kind of experiment: Inhibitory effect on neutrophil infiltration of rat lung (LPS intratracheal, BALF). It counts as in vivo. The settings on record: SD rats; approx. 0.1 mg/Kg intratracheally 1 hour prior to LPS; BALF 4 hours after LPS. As for the experimental part: Inhibitory Effect on Neutrophil Infiltration of Rat Lung
A test of inhibition of neutrophil infiltration of the rat lung was performed by partially modifying the method of Spond et al. (Pulmonary Pharmacology and Therapeutics, 14, 157 (2001)). 25 μL (approx. 4 μg/Kg) of physiological saline solution containing LPS (L2880-500MG, manufactured by Sigma) (concentration: 0.04 mg/mL) was administered intratracheally under isoflurane inhalation anesthesia into SD rats fasted for about 16 hours (males, 7-8 weeks old, body weights: 240 g to 270 g (average: approx. 250 g), supplied by Charles River Laboratories, Japan). A Microsprayer™ (IA-1C-M, manufactured by PennCentury) was used for intratracheal administration.
Dosing solutions of the test compounds were prepared by dissolving the test compounds in a 0.1 mol/L or 1 mol/L aqueous sodium hydroxide solution followed by adding medium and neutralizing (final test compound concentration: 1 mg/mL). PBS or phosphate buffer solution (20 mM, pH=7.4) was used for the medium. 25 μL (approx. 0.1 mg/Kg) of the test compound solution prepared in this manner was administered intratracheally in the same manner as LPS administration 1 hour prior to administration of LPS. Medium was administered to a control group. Furthermore, 6 animals were used in the test compound dosing groups and control group, respectively. […]
The number of white blood cells present in the BALF suspension was measured using a multiparameter automated hematology analyzer (KX-21, manufactured by Sysmex). […] Next, after staining the cells using the Diff-Quik staining kit (Cat. No. 16920, manufactured by Sysmex), the number of neutrophils present among 300 white blood cells was measured under a light microscope (BH-2, manufactured by Olympus) followed by calculating the ratio of neutrophils to white blood cells (NR=the number of neutrophils among 300 white blood cells/300). […]
The number of neutrophils present in the BALF cell suspension was measured using a multiparameter automated hematology analyzer (XT-2000iV, manufactured by Sysmex). […]

For experiment [2], the system named is LPS-induced TNFα production of human peripheral blood mononuclear cells. The experiment can be described thus: Test of inhibition of LPS-induced TNFα production using human peripheral blood mononuclear cells. The following applies: read-out: IC50 value (nM) of TNFα production inhibitory action of human PBMC. It counts as cell-based. As for the experimental part: Test of Inhibition of LPS-Induced TNFα Production Using Human Peripheral Blood Mononuclear Cells
Peripheral blood collected in the presence of heparin from healthy subjects was diluted two-fold with PBS containing 2 (V/V) % FBS. Hemocyte separation solution (Ficoll Paque™, manufactured by GE Healthcare Science) was added to SepMate™-50 (manufactured by […] Technologies Inc.) followed by layering the diluted blood thereon. A peripheral blood mononuclear cell (hereinafter abbreviated as PBMC) layer was recovered by centrifuging for 10 minutes under conditions of 20° C. and 1200×g. The resulting PBMCs were further centrifuged and washed twice followed by suspending in RPMI1640 medium containing 1 (V/V) % FBS for use in the following test.
A test of inhibition of LPS-induced TNFα production was performed by partially modifying the method of Mary et al. (Journal of Pharmacology and Experimental Therapeutics, 284, 420 (1998)). 185 μL of PBMC suspension prepared to a final concentration of 5×10^5 cells/mL was added to a 96-well plate, subsequently 10 μL of RPMI1640 medium, containing 1 (V/V) % DMSO in which a test compound was dissolved, was added to each well (DMSO final concentration: 0.05 (V/V) %). RPMI1640 medium containing 1 (V/V) % DMSO was similarly added to a well to which test compounds had not been added. After incubating for 1 hour in a carbon dioxide gas incubator, 5 μL of RPMI1640 medium containing LPS (L2880-500MG, manufactured by Sigma) was added to each well (LPS final concentration: 100 ng/mL). 5 μL of RPMI1640 medium was added to a non-LPS stimulation well. After culturing for about 18 hours in a carbon dioxide gas incubator, the culture supernatant was recovered. The recovered culture supernatant was stored at −20° C. until measurement of TNFα content.
A sandwich ELISA kit (Quantikine DTA00c, manufactured by R&D Systems) was used to measure TNFα content. The TNFα content of each sample was calculated from a standard curve of E. coli-derived human recombinant TNF provided with the kit. TNFα production inhibition rate at each test compound concentration was calculated based on a value of 100% for the amount of TNFα produced by LPS in the case of only adding DMSO. The concentration of test compound that inhibited TNFα production by 50% was calculated as the IC50 value (nM) from the relationship between concentration of the added test compound and TNFα production inhibition rate of the test compound.

The target in the next experiment is human EP2 receptor (Homo sapiens, UniProt P43116). As to the kind of experiment: Measurement of EP2 receptor binding action ([3H]prostaglandin E2 displacement). As for the experimental part:
Measurement of EP2 Receptor Binding Action
The membrane fraction was collected on glass fiber filter paper (GF/B, manufactured by Whatman) using a cell harvester (M30R, manufactured by Brandel), and after washing with a buffer solution (10 mM MES-KOH (pH 6.0), 10 mM MgCl2), radioactivity was measured with a liquid scintillation analyzer (2000CA, manufactured by Packard).
Ki=IC50/(1+([^3H]prostaglandin E2 concentration/Kd))
Furthermore, the dissociation constant (Kd value) was calculated by Scatchard analysis.

Where [3] appears, read: membrane fraction of HEK293 cells expressing human EP2 receptor, [3H]prostaglandin E2 10 nM, 30° C., 60 minutes, read-out: Ki value (nM) of EP2 receptor binding action.

Structures are written as SMILES. Where two headings read alike, the source gives them in different places.

Sequence of human EP2 receptor (P43116 whole entry): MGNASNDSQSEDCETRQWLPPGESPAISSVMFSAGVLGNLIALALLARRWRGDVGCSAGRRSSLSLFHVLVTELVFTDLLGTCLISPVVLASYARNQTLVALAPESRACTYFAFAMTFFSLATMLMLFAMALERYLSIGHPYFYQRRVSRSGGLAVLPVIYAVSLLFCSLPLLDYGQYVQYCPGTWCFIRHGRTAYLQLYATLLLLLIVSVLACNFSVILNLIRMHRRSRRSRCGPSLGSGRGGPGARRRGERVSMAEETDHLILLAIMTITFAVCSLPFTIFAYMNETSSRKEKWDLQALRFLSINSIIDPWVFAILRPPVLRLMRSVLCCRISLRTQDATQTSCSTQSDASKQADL

As for `CC#Cc1cccc(-c2ccc(CN(Cc3cccc(NCC(=O)O)n3)S(=O)(=O)c3cccs3)cc2)c1` [Example 14, (6-{[3′-(1-Propynyl)biphenyl-4-ylmethyl](thiophen-2-ylsulfonyl)-aminomethyl}pyridin-2-ylamino)acetic acid], the “Inhibition rate of pulmonary neutrophil infiltration” value (“Inhibition rate” below) in experiment [1] came to 65%. Further, in experiment [2] (Homo sapiens, PBMC, 18 h), the IC50 came out at 13 nM. Besides, on human EP2 receptor (setting [3]), the Ki was found to be 0.9 nM.
Take `CCCc1cccc(-c2ccc(CN(Cc3cccc(NCC(=O)O)n3)S(=O)(=O)c3ccccn3)cc2)c1` [Comparative Example 1, {6-[(3′-Propylbiphenyl-4-ylmethyl)(pyridin-2-ylsulfonyl)aminomethyl]pyridin-2-ylamino}acetate, reference compound]: in experiment [2] (LPS 100 ng/mL, culture about 18 hours, TNFα by ELISA), the IC50 was over 300 nM. In addition, at human EP2 receptor (setting [3]), the Ki was found to be 1.1 nM.
Consider `CC=Cc1cccc(-c2ccc(CN(Cc3cccc(NCC(=O)O)n3)S(=O)(=O)c3ccccn3)cc2)c1` [Example 2], for which, at human EP2 receptor (setting [3]), the Ki is 0.53 nM.
For `CCOc1cccc(-c2ccc(CN(Cc3cccc(NCC(=O)O)n3)S(=O)(=O)c3cccnc3)cc2)c1` [Example 9, {6-[(3′-Ethoxybiphenyl-4-ylmethyl)(pyridin-3-ylsulfonyl)aminomethyl]-pyridin-2-ylamino}acetic acid], on human EP2 receptor, the Ki amounted to 0.8 nM.
With `CC#Cc1cccc(-c2ccc(CN(Cc3cccc(NCC(=O)O)n3)S(=O)(=O)c3ccccc3)cc2)c1` [Example 16, (6-{(Benzenesulfonyl)[3′-(1-propynyl)biphenyl-4-ylmethyl]aminomethyl}-pyridin-2-ylamino)acetic acid], the “Inhibition rate” value in experiment [1] amounted to 66%. Further, in experiment [2] (Homo sapiens, PBMC, 18 h), the IC50 came out at 15 nM. Further, on human EP2 receptor, the affinity, expressed as Ki, was 0.95 nM.
For the compound `CCOc1cccc(-c2ccc(CN(Cc3cccc(NCC(=O)O)n3)S(=O)(=O)c3ccccn3)cc2)c1` [Example 7, {6-[(3′-Ethoxybiphenyl-4-ylmethyl)(pyridin-2-ylsulfonyl)aminomethyl]-pyridin-2-ylamino}acetic acid], in experiment [2] (Homo sapiens, PBMC, 18 h), the IC50 is 20 nM. The compound further yielded a Ki at human EP2 receptor of 0.61 nM.
Turning to `CCOc1cccc(-c2ccc(CN(Cc3cccc(NCC(=O)O)n3)S(=O)(=O)c3ccccn3)cc2)n1` [Example 12, (6-{[4-(6-Ethoxypyridin-2-yl)benzyl](pyridin-2-ylsulfonyl)aminomethyl}-pyridin-2-ylamino)acetic acid], the IC50 in experiment [2] (Homo sapiens, PBMC, 18 h) was determined as 16 nM.
As to `CC#Cc1cccc(-c2ccc(CN(Cc3cccc(NCC(=O)O)n3)S(=O)(=O)c3ccccn3)cc2)c1` [Example 4, (6-{[3′-(1-Propynyl)biphenyl-4-ylmethyl](pyridin-2-ylsulfonyl)aminomethyl}-pyridin-2-ylamino)acetic acid], in experiment [1], the “Inhibition rate” value was determined as 71%. In addition, in experiment [2] (Homo sapiens, PBMC, 18 h), the IC50 is 3.3 nM. On human EP2 receptor (setting [3]), the Ki is 0.8 nM.
For `CC#Cc1cccc(-c2ccc(CN(Cc3cccc(NCC(=O)O)n3)S(=O)(=O)c3ccsc3)cc2)c1` [Example 18, (6-{[3′-(1-Propynyl)biphenyl-4-ylmethyl](thiophen-3-ylsulfonyl)-aminomethyl}pyridin-2-ylamino)acetic acid], the IC50 in experiment [2] (Homo sapiens, PBMC, 18 h) was found to be 3.2 nM. The Ki at human EP2 receptor (setting [3]) was 0.99 nM.
On to `CC#Cc1cccc(-c2ccc(CN(Cc3cccc(NCC(=O)O)n3)S(=O)(=O)c3cccnc3)cc2)c1` [Example 6, (6-{[3′-(1-Propynyl)biphenyl-4-ylmethyl](pyridin-3-ylsulfonyl)aminomethyl}-pyridin-2-ylamino)acetic acid], for which the IC50 in experiment [2] (Homo sapiens, PBMC, 18 h) amounted to 9.4 nM. Moreover, the Ki at human EP2 receptor turned out to be 0.75 nM.
As for `CCOc1cccc(-c2ccc(CN(Cc3cccc(NCC(=O)O)n3)S(=O)(=O)c3cccs3)cc2)c1` [Example 11, {6-[(3′-Ethoxybiphenyl-4-ylmethyl)(thiophen-2-ylsulfonyl)aminomethyl]-pyridin-2-ylamino}acetic acid], the IC50 in experiment [2] (Homo sapiens, PBMC, 18 h) came to 23 nM.
Take `CCOc1cccc(-c2ccc(CN(Cc3cccc(NCC(=O)O)n3)S(=O)(=O)c3ccccc3)cc2)c1` [Example 10, {6-[(Benzenesulfonyl)(3′-ethoxybiphenyl-4-ylmethyl)aminomethyl]pyridin-2-ylamino}acetic acid]: the IC50 in experiment [2] (Homo sapiens, PBMC, 18 h) worked out at 18 nM. On human EP2 receptor, this compound displayed a Ki of 0.97 nM.
